In PMC8447932 (Chemical Science, 2021):

Test system: spontaneously hypertensive (SHR) male rats
Experiment: Blood pressure in SHR rats after single PO administration
Type: in vivo, rat
Details: 3 mg kg−1 per os once

COc1cc2nc(N3CCN(C(=O)C4CCCO4)CC3)nc(N)c2cc1OC (centres unmarked) [compound 74, terazosin]
systolic BP lowering effect in comparison with the vehicle at 120 min (120 min time point): no statistically significant activity | systolic BP decrease in comparison with corresponding vehicle groups (after 15 min and 60 min of treatment): significant systolic BP decrease
